Test results as given in patent US12398154B2, “Azaquinazoline pan-KRas inhibitors” (Mirati Therapeutics, Inc., priority 2020, dated 2025).

What was measured:
KRas G12C = KRas G12C (Homo sapiens, UniProt P01116, G12C); assay: biochemical;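 also: binding to KRas assessed by TR-FRET displacement after one hour incubation at room temperature, potency fitted from percent-of-control values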
Method: (§1) The ability of a compound to bind to KRas was measured using a TR-FRET displacement assay. […] After a 60-minute incubation at room temperature, the reaction was measured using a BMG LABTECH CLARIO star Plus via TR-FRET. […] The POC values were fit to a 4-parameter IC50 equation and the IC50 value reported.

KRas G12A = KRas G12A (Homo sapiens, UniProt P01116, G12A); assay: biochemical;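 also: binding to KRas measured by TR-FRET displacement after one hour at room temperature, IC50 from a four-parameter fit of percent-of-control values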
Method: as §1

KRas WT = KRas WT (Homo sapiens, UniProt P01116); assay: biochemical;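 also: binding to KRas read as TR-FRET displacement after a one-hour room-temperature incubation, IC50 derived from percent-of-control values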
Method: as §1

KRas G12D = KRas G12D (Homo sapiens, UniProt P01116, G12D); assay: biochemical;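 also: TR-FRET displacement binding assay on KRas, read after a one-hour incubation at room temperature, IC50 fitted from percent-of-control values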
Method: as §1

KRas G12V = KRas G12V (Homo sapiens, UniProt P01116, G12V); assay: biochemical;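 also: KRas binding measured by TR-FRET displacement at room temperature, IC50 fitted from percent of control values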
Method: as §1

KRas Q61H = target: T1, KRas Q61H (Homo sapiens, UniProt P01116, Q61H); assay: KRas binding assay (TR-FRET displacement);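 also: TR-FRET signal read after one hour at room temperature, IC50 derived by four-parameter fitting of percent-of-control values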
T1 construct: Biotinylated KRas (corresponding to amino acids 1-169, produced at Accelegan Inc.); biotin (biotinylated); purchased Accelegan Inc
Method: as §1

KRas G12S = KRas G12S (Homo sapiens, UniProt P01116, G12S); assay: biochemical;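 also: TR-FRET displacement binding to KRas, read after one hour incubation at room temperature, IC50 from four-parameter fit of percent of control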
Method: as §1

KRas G13D = target: T2, KRas G13D (Homo sapiens, UniProt P01116, G13D); assay: KRas binding assay (TR-FRET displacement);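 also: One-hour room temperature incubation before TR-FRET reading, IC50 from a four-parameter curve fit to percent-of-control data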
T2 construct: Biotinylated KRas (corresponding to amino acids 1-169, produced at Accelegan Inc.); biotin (biotinylated); purchased Accelegan Inc
Method: as §1

KRas G12R = KRas G12R (Homo sapiens, UniProt P01116, G12R); assay: biochemical;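 also: TR-FRET displacement assay of compound binding to KRas, read after one hour at room temperature, potency from a four-parameter fit of percent-of-control values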
Sequence of KRas G12R (P01116 1-169 isoform P01116-2 G12R): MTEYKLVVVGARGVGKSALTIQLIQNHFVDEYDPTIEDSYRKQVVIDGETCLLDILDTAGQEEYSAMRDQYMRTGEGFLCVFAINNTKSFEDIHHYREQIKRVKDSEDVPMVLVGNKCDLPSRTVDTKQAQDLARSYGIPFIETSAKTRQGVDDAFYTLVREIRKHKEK
Method: as §1

Sequence of KRas G12C (P01116 1-169 isoform P01116-2 G12C): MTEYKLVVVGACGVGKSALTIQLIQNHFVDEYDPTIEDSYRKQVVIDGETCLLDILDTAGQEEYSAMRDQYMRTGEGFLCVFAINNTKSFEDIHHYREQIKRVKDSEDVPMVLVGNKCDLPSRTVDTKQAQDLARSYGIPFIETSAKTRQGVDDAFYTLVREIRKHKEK
Sequence of KRas WT (P01116 1-169 isoform P01116-2): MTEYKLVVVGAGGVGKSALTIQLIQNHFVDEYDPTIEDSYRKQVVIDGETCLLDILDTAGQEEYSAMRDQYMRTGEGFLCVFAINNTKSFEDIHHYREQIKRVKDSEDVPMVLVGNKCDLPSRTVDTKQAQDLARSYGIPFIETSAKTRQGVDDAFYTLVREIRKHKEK
Sequence of KRas G12S (P01116 1-169 isoform P01116-2 G12S): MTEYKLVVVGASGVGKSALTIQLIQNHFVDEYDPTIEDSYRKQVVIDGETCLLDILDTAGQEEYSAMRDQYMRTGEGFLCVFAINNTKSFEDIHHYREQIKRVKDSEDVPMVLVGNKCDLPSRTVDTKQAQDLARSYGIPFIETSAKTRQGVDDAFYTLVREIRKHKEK
Sequence of KRas G12D (P01116 1-169 isoform P01116-2 G12D): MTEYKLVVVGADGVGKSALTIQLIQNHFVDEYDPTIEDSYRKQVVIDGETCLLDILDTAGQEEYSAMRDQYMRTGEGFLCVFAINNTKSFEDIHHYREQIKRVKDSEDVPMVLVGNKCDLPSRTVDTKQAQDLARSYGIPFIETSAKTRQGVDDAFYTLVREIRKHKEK
Sequence of KRas G12V (P01116 1-169 isoform P01116-2 G12V): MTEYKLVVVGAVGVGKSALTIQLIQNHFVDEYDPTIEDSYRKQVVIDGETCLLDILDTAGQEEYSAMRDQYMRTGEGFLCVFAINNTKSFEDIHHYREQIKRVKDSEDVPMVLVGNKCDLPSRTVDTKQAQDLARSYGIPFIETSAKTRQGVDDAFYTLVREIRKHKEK
T1 sequence (P01116 1-169 isoform P01116-2 Q61H): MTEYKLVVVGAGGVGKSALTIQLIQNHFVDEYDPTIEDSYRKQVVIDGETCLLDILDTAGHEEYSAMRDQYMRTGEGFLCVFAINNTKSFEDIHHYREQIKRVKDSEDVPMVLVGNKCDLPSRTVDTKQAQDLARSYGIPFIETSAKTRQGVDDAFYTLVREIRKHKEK
Sequence of KRas G12A (P01116 1-169 isoform P01116-2 G12A): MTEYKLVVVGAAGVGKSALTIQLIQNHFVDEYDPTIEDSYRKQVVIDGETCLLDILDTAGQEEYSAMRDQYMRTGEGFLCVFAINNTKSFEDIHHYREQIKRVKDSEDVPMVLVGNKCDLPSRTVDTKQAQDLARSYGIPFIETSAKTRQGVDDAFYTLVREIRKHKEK
T2 sequence (P01116 1-169 isoform P01116-2 G13D): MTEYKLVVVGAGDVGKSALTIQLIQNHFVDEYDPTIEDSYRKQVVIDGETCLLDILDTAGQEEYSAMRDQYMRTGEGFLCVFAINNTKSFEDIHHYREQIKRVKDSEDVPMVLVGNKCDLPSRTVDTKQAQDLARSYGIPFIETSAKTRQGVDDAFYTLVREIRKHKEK

Row | SMILES | IC50 (KRas G12C) [µM] | IC50 (KRas G12A) [µM] | IC50 (KRas WT) [µM] | IC50 (KRas G12D) [µM] | IC50 (KRas G12V) [µM] | IC50 (KRas Q61H) [nM] | IC50 (KRas G12S) [µM] | IC50 (KRas G13D) [nM] | IC50 (KRas G12R) [µM]
1 | OCC1CN(c2nc(OCC34CCCN3CCC4)nc3c(F)c(-c4cccc5cccc(F)c45)ncc23)CCC1O (stereo not drawn) [Example 117, 1-(8-fluoro-7-(8-fluoronaphthalen-1-yl)-2-((tetrahydro-1H-pyrrolizin-7a(5H)-yl)methoxy)pyrido[4,3-d]pyrimidin-4-yl)-3-(hydroxymethyl)piperidin-4-ol] | 6.57 | 9.15 | 9.86 | 32 | 11.1 | 8240 | 11 | 5680 | 10.1
2 | Fc1c(-c2cccc3cccc(F)c23)ncc2c(NCCCn3ccnn3)nc(OCC34CCCN3CCC4)nc12 [Example 118, N-(3-(1H-1,2,3-triazol-1-yl)propyl)-8-fluoro-7-(8-fluoronaphthalen-1-yl)-2-((tetrahydro-1H-pyrrolizin-7a(5H)-yl)methoxy)pyrido[4,3-d]pyrimidin-4-amine] | 7.45 | 8.14 | 8.55 | 16.1 | 7.53 | 14000 | 6.24 | 8810 | 11.3
3 | Oc1cccc2c1CN(c1nc(OCC34CCCN3CCC4)nc3c(F)c(-c4cccc5cccc(F)c45)ncc13)C2 [Example 120, 2-(8-fluoro-7-(8-fluoronaphthalen-1-yl)-2-((tetrahydro-1H-pyrrolizin-7a(5H)-yl)methoxy)pyrido[4,3-d]pyrimidin-4-yl)isoindolin-4-ol] | 19.8 | 33.3 | 34.1 | ≥ 100 | ≥ 100 | ≥ 100000 | 85.3 | ≥ 100000 | ≥ 100
4 | Fc1c(-c2cccc3cccc(F)c23)ncc2c(NCc3nnc4ncccn34)nc(OCC34CCCN3CCC4)nc12 [Example 121, N-([1,2,4]triazolo[4,3-a]pyrimidin 3 ylmethyl) 8-fluoro-7-(8-fluoronaphthalen-1-yl)-2-((tetrahydro-1H-pyrrolizin-7a(5H)-yl)methoxy)pyrido[4,3-d]pyrimidin-4-amine] | 9.1 | 15.5 | 13 | 42.8 | 6.64 | 25400 | 18.6 | 17300 | 12.3
5 | Fc1c(-c2cccc3cccc(F)c23)ncc2c(NCCCc3cccnc3)nc(OCC34CCCN3CCC4)nc12 [Example 124, 8-fluoro-7-(8-fluoronaphthalen-1-yl)-N-(3-(pyridin-3-yl)propyl)-2-((tetrahydro-1H-pyrrolizin-7a(5H)-yl)methoxy)pyrido[4,3-d]pyrimidin-4-amine] | 1.48 | 2.07 | 7.02 | 12.6 | 1.51 | 7140 | 3.87 | 7820 | 2.19
6 | Nc1cc2n(n1)CCN(c1nc(OCC34CCCN3CCC4)nc3c(F)c(-c4cccc5cccc(F)c45)ncc13)C2 [Example 126, 5-(8-fluoro-7-(8-fluoronaphthalen-1-yl)-2-((tetrahydro-1H-pyrrolizin-7a(5H)-yl)methoxy)pyrido[4,3-d]pyrimidin-4-yl)-4,5,6,7-tetrahydropyrazolo[1,5-a]pyrazin-2-amine] | 9.29 | 13.8 | 5.97 | 67.3 | ≥ 100 | 7500 | 3.97 | 7290 | 18.4
7 | OC1CCCN(c2nc(OCC34CCCN3CCC4)nc3c(F)c(-c4cccc5cccc(F)c45)ncc23)CC1 (stereo not drawn) [Example 129, 1-(8-fluoro-7-(8-fluoronaphthalen-1-yl)-2-((tetrahydro-1H-pyrrolizin-7a(5H)-yl)methoxy)pyrido[4,3-d]pyrimidin-4-yl)azepan-4-ol] | 2.53 | 2.69 | 3.11 | 2.26 | 2.79 | 4360 | 2.79 | 2500 | 4.43
8 | OCC1CCCCN(c2nc(OCC34CCCN3CCC4)nc3c(F)c(-c4cccc5cccc(F)c45)ncc23)C1 (stereo not drawn) [Example 130, (1-(8-fluoro-7-(8-fluoronaphthalen-1-yl)-2-((tetrahydro-1H-pyrrolizin-7a(5H)-yl)methoxy)pyrido[4,3-d]pyrimidin-4-yl)azepan-3-yl)methanol] | 9.08 | 10.5 | 11.4 | 8.36 | 10.8 | 21900 | 14.2 | 25800 | 18.3

Next, values leading:

Row | IC50 (KRas G12C) [µM] | IC50 (KRas G12A) [µM] | IC50 (KRas WT) [µM] | IC50 (KRas G12D) [µM] | IC50 (KRas G12V) [µM] | IC50 (KRas Q61H) [nM] | IC50 (KRas G12S) [µM] | IC50 (KRas G13D) [nM] | IC50 (KRas G12R) [µM] | SMILES
9 | 11.6 | 14.4 | 15.7 | 31.9 | 18 | 27600 | 14.6 | 17200 | 15.6 | Fc1c(-c2cccc3cccc(F)c23)ncc2c(NCCCn3cnnn3)nc(OCC34CCCN3CCC4)nc12 [Example 119, N-(3-(1H-tetrazol-1-yl)propyl)-8-fluoro-7-(8-fluoronaphthalen-1-yl)-2-((tetrahydro-1H-pyrrolizin-7a(5H)-yl)methoxy)pyrido[4,3-d]pyrimidin-4-amine]
10 | 3.47 | 14.4 | 26 | ≥ 100 | 6.91 | 88200 | 21.7 | 86400 | 12.4 | Fc1c(-c2cccc3cccc(F)c23)ncc2c(NCc3nnc4cccnn34)nc(OCC34CCCN3CCC4)nc12 [Example 122, N-([1,2,4]triazolo[4,3-b]pyridazin-3-ylmethyl)-8-fluoro-7-(8-fluoronaphthalen-1-yl)-2-((tetrahydro-1H-pyrrolizin-7a(5H)-yl)methoxy)pyrido[4,3-d]pyrimidin-4-amine]
11 | 2.34 | 3.18 | 3.5 | 4.44 | 3.19 | 4980 | 2.76 | 3480 | 7.5 | Fc1c(-c2cccc3cccc(F)c23)ncc2c(N3CC=CCC3)nc(OCC34CCCN3CCC4)nc12 [Example 123, 4-(3,6-dihydropyridin-1 (2H)-yl)-8-fluoro-7-(8-fluoronaphthalen-1-yl)-2-((tetrahydro-1H-pyrrolizin-7a(5H)-yl)methoxy)pyrido[4,3-d]pyrimidine]
12 | 4.25 | 5.52 | 13.3 | 60.4 | 3.92 | 39000 | 7.42 | 29100 | 4.39 | Fc1c(-c2cccc3cccc(F)c23)ncc2c(NCc3ccc4nonc4c3)nc(OCC34CCCN3CCC4)nc12 [Example 125, N-(benzo[c][1,2,5]oxadiazol-5-ylmethyl)-8-fluoro-7-(8-fluoronaphthalen-1-yl)-2-((tetrahydro-1H-pyrrolizin-7a(5H)-yl)methoxy)pyrido[4,3-d]pyrimidin-4-amine]
13 | 2.19 | 2.68 | 4.22 | 25.1 | 1.7 | 11100 | 1.72 | 8700 | 2.58 | O=S1(=O)CC(CNc2nc(OCC34CCCN3CCC4)nc3c(F)c(-c4cccc5cccc(F)c45)ncc23)C1 [Example 127, 3-(((8-fluoro-7-(8-fluoronaphthalen-1-yl)-2-((tetrahydro-1H-pyrrolizin-7a(5H)-yl)methoxy)pyrido[4,3-d]pyrimidin-4-yl)amino)methyl)thietane 1,1-dioxide]
14 | 9.57 | 11.5 | 12.8 | 49 | 8.79 | 18400 | 7.8 | 13400 | 4.14 | O=S1(=O)CC[C@H](CNc2nc(OCC34CCCN3CCC4)nc3c(F)c(-c4cccc5cccc(F)c45)ncc23)N1 [Example 128, (R)-3-(((8-fluoro-7-(8-fluoronaphthalen-1-yl)-2-((tetrahydro-1H-pyrrolizin-7a(5H)-yl)methoxy)pyrido[4,3-d]pyrimidin-4-yl)amino)methyl)isothiazolidine 1,1-dioxide]
15 | 3.45 | 4.46 | 8.21 | 14.6 | 8.3 | 7690 | 9.29 | 6560 | 2.79 | Fc1c(-c2cccc3cccc(F)c23)ncc2c(N3CCCC(c4cc[nH]n4)C3)nc(OCC34CCCN3CCC4)nc12 (stereo not drawn) [Example 131, 4-(3-(1H-pyrazol-3-yl)piperidin-1-yl)-8-fluoro-7-(8-fluoronaphthalen-1-yl)-2-((tetrahydro-1H-pyrrolizin-7a(5H)-yl)methoxy)pyrido[4,3-d]pyrimidine]
16 | 0.077 | 0.071 | 0.074 | 0.043 | 0.048 | 82 | 0.065 | 60 | 0.096 | Cc1cc2[nH]ncc2c(-c2ncc3c(N4CCCC(C)(O)C4)nc(OCC45CCCN4CCC5)nc3c2F)c1C1CC1 (stereo not drawn) [Example 144, 1-(7-(5-cyclopropyl-6-methyl-1H-indazol-4-yl)-8-fluoro-2-((tetrahydro-1H-pyrrolizin-7a(5H)-yl)methoxy)pyrido[4,3-d]pyrimidin-4-yl)-3-methylpiperidin-3-ol]
